In patent US20180251431A1 (VERTEX PHARMACEUTICALS INCORPORATED, priority 2016, published 2018):

What follows are molecules tested on HEK293 cells (assay: HEK293 VLCFA-LPC IC50 determination (13C-labeled C26:0 LPC by UHPLC/MS)). Details: Homo sapiens, HEK293, HEK293 cells; average of one or more replicates; read-out: Average HEK293 IC50.
Format: cell-based, human
Procedure, shortened: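 Suspension HEK293 cells (final 0.5 million/mL after mixing with equal volume) incubated 48 hours with compound plus 13C-acetate (1.0 mg/mL in added media), shaking at 37° C. Lipids extracted with hexane/isopropanol or methanol, C13:0 LPC standard. UHPLC/MS of 13C-labeled C26:0 LPC (638.500/104.100 m/z); IC50 by four-parameter fit.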

Row | Structure (SMILES) | IC50
1 | O=C(Nc1ccn(-c2ccc(F)c(F)c2)n1)C1(c2cnccn2)CC1 [Compound 492, N-[1-(3,4-difluorophenyl)pyrazol-3-yl]-1-pyrazin-2-yl-cyclopropanecarboxamide] | > 5000 nM
2 | O=C(Nc1ccn(-c2cc(F)cc(F)c2)n1)C1(c2cnccn2)CC1 [Compound 493, N-[1-(3,5-difluorophenyl)pyrazol-3-yl]-1-pyrazin-2-yl-cyclopropanecarboxamide] | > 5000 nM
3 | O=C(Nc1ccn(-c2ccc(F)cc2)n1)C1(c2cnccn2)CC1 [Compound 494, N-[1-(4-fluorophenyl)pyrazol-3-yl]-1-pyrazin-2-yl-cyclopropanecarboxamide] | > 5000 nM
4 | O=C(Nc1ccn(-c2ccncc2)n1)C1(c2cnccn2)CC1 [Compound 495, 1-pyrazin-2-yl-N-[1-(4-pyridyl)pyrazol-3-yl]cyclopropanecarboxamide] | > 5000 nM
5 | O=C(Nc1ccn(-c2cncc(OC(F)F)c2)n1)C1(c2cnccn2)CC1 [Compound 496, N-[1-[5-(difluoromethoxy)-3-pyridyl]pyrazol-3-yl]-1-pyrazin-2-yl-cyclopropanecarboxamide] | > 5000 nM
6 | Cc1cnc(C2(C(=O)Nc3ccn(-c4cncc(F)c4)n3)CC2)c(F)c1 [Compound 497, 1-(3-fluoro-5-methyl-2-pyridyl)-N-[1-(5-fluoro-3-pyridyl)pyrazol-3-yl]cyclopropanecarboxamide] | 2100 nM
7 | O=C(Nc1ccn(-c2cncc(F)c2)n1)C1(c2ncc(Cl)cc2F)CC1 [Compound 498, 1-(5-chloro-3-fluoropyridin-2-yl)-N-(1-(5-fluoropyridin-3-yl)-1H-pyrazol-3-yl)cyclopropane-1-carboxamide] | 470 nM
8 | COc1ccnc(-n2ccc(NC(=O)C3(c4ccccc4F)CC3)n2)c1 [Compound 501, 1-(2-fluorophenyl)-N-[1-(4-methoxy-2-pyridyl)pyrazol-3-yl]cyclopropanecarboxamide] | > 5000 nM
9 | COc1cccc(-n2ccc(NC(=O)C3(c4ccccc4F)CC3)n2)n1 [Compound 502, 1-(2-fluorophenyl)-N-[1-(6-methoxy-2-pyridyl)pyrazol-3-yl]cyclopropanecarboxamide] | > 5000 nM
10 | CC1CC1(C(=O)Nc1ccn(-c2cncc(F)c2)n1)c1ncccc1F (stereo not shown) [Compound 503, 1-(3-fluoro-2-pyridyI)-N-[1-(5-fluoro-3-pyridyl)pyrazol-3-yl]-2-methyl-cyclopropanecarboxamide] | 110 nM
11 | CC1CC1(C(=O)Nc1ccn(-c2cncc(Cl)c2)n1)c1ncccc1F (stereo not shown) [Compound 504, N-[1-(5-chloro-3-pyridyl)pyrazol-3-yl]-1-(3-fluoro-2-pyridyl)-2-methyl-cyclopropanecarboxamide] | 120 nM
12 | CC1CC1(C(=O)Nc1ccn(-c2ccc(F)cc2)n1)c1ncccc1F (stereo not shown) [Compound 505, N-[1-(4-fluorophenyl)pyrazol-3-yl]-1-(3-fluoro-2-pyridyl)-2-methyl-cyclopropanecarboxamide] | 110 nM
13 | CC1CC1(C(=O)Nc1ccn(-c2ccc(F)c(F)c2)n1)c1ncccc1F (stereo not shown) [Compound 506, N-[1-(3,4-difluorophenyl)pyrazol-3-yl]-1-(3-fluoro-2-pyridyl)-2-methyl-cyclopropanecarboxamide] | 220 nM
14 | Cc1cc(NC(=O)C2(c3ncccc3F)CC2C)nn1-c1ccc(F)cc1F (stereo not shown) [Compound 507, N-[1-(2,4-difluorophenyl)-5-methyl-pyrazol-3-yl]-1-(3-fluoro-2-pyridyl)-2-methyl-cyclopropanecarboxamide] | > 5000 nM
15 | CC1CC1(C(=O)Nc1ccn(-c2cc(F)cc(F)c2)n1)c1ncccc1F (stereo not shown) [Compound 508, N-[1-(3,5-difluorophenyl)pyrazol-3-yl]-1-(3-fluoro-2-pyridyl)-2-methyl-cyclopropanecarboxamide] | 71 nM
16 | COc1ncc(-n2ccc(NC(=O)C3(c4ncccc4F)CC3C)n2)cc1F (stereo not shown) [Compound 509, N-[1-(5-fluoro-6-methoxy-3-pyridyl)pyrazol-3-yl]-1-(3-fluoro-2-pyridyl)-2-methyl-cyclopropanecarboxamide] | 180 nM
